Tested on: MRSA
Assay: CFU counts of MRSA plated on agar with antibiotic after sub-lethal NIMELS laser (Examples IX-XII)
Format: cell-based, Staphylococcus aureus
Conditions: antibiotic at resistant MIC just below effectiveness level
From the text: The following parameters illustrate the general bacterial methods according to the invention as applied to MRSA for the in vitro Experiments V and VIII-XII.
The null hypothesis is μ1−μ2=0 and μ1−μ3=0 where:
a) μ1 is sub-lethal dosimetry from the NIMEL laser system on MRSA as a control and;
The null hypothesis is μ1−μ2=0 and μ1−μ3=0 where: • a) μ1 is sub-lethal dosimetry from the NIMEL laser system on MRSA as a control and; • b)μ2 is the same sub-lethal dosimetry from the NIMEL laser system on MRSA with the addition of tetracycline at resistant MIC just below effectiveness level and; • c) μ3 is the same sub-lethal dosimetry from the NIMEL laser system on MRSA with the addition of rifampin at resistant MIC just below effectiveness level.
The null hypothesis is μ1−μ2=0 and μ1−μ3=0 where: a) μ1 is sub-lethal dosimetry from the NIMEL laser system on MRSA as a control and; b)μ2 is the same sub-lethal dosimetry from the NIMEL laser system on MRSA with the addition of methicillin at resistant MIC just below effectiveness level and; […]

## COc1cccc(OC)c1C(=O)N[C@@H]1C(=O)N2[C@@H]1SC(C)(C)[C@@H]2C(=O)O [Methicillin]
  effect of sub-lethal NIMELS irradiation on antibiotic action against MRSA colonies (words): successful reversal of MRSA resistance
Listed as methicillin
  effect of sub-lethal NIMELS irradiation on antibiotic action against MRSA colonies (words): being potentiated by the NIMELS effect

Reference: patent publication US20110295343A1, “NEAR-INFRARED ELECTROMAGNETIC MODIFICATION OF CELLULAR STEADY-STATE MEMBRANE POTENTIALS” (priority 2008, published 2011)
